Measured values reported in patent US20090131356A1, “miR-15, miR-26, miR-31, miR-145, miR-147, miR-188, miR-215, miR-216, miR-331, mmu-miR-292-3P REGULATED GENES AND PATHWAYS AS TARGETS FOR THERAPEUTIC INTERVENTION” (ASURAGEN, INC., priority 2006, published 2009).

Assays:
SCLC and NSCLC cells = details: various lung cancer cells, SCLC and NSCLC (Tsai et al., 1993; Ohsaki et al., 1992); cited from earlier work
Du145 cells = test: Alamar Blue proliferation assay, Du145; assay type: cell-based, human; details: 30 nM, normalized to negative control miRNA (100% proliferation)
From the text: The inventors assessed the therapeutic effect of hsa-miR-147 for prostate cancer by using 4 individual human prostate cancer cell lines. To measure cellular proliferation of prostate cancer cells, the following prostate cancer cell lines were used: PPC-1 and PC3, derived from a bone metastasis; Du145, derived from a brain metastasis; RWPE2, derived from prostate cells immortalized by human papillomavirus 18 and transformed by the K-RAS oncogene (Bello et al., 1997; Stone et al., 1978; Brothman et al., 1991). PC3, PPC-1, and Du145 cells lack expression of the prostate-specific antigen (PSA) and are independent of androgen receptor (AR) signaling. In contrast, RWPE2 cells test positive for PSA and AR.
PPC-1, Du145 and RWPE2 cells were transfected with synthetic hsa-miR-147 (Pre-miR™-hsa-miR-147, Ambion cat. no. AM17100) or negative control miRNA (NC; Pre-miR™ microRNA Precursor Molecule-Negative Control #2; Ambion cat. no. AM17111) in a 96-well format using a lipid-based transfection reagent. […] Proliferation was assessed 4-7 days post-transfection using Alamar Blue™ (Invitrogen) following the manufacturer's instructions. […] Fluorescent light units (FLU) were measured after 3 hours, normalized to the control, and plotted as percent change in proliferation. […]

[1] = system: parental lung cancer cells; test: Alamar Blue proliferation assay, average over parental lung cancer cell lines; assay type: cell-based, human; details: average of 12 parental lung cancer cell lines; vs negative control miRNA (=100%); 72 hours (Calu-3 10 days)
From the text: The inventors assessed the therapeutic effect of hsa-miR-147 for lung cancer by using 12 individual lung cancer cell lines. To measure cellular proliferation of lung cancer cells, the following parental non-small cell lung cancer (NSCLC) cells were used: cells derived from lung adenocarcinoma (A549, H1299, H522, H838, Calu-3, HCC827, HCC2935), cells derived from lung squamous cell carcinoma (H520, H226), cells derived from lung adenosquamous cell carcinoma (H596), cells derived from lung bronchioalveolar carcinoma (H1650), and cells derived from lung large cell carcinoma (H460). In addition to these parental cell lines, highly metastatic NSCLC cells were used that stably express the firefly luciferase gene: A549-luc, H460-luc, HCC827-luc, H1650-luc, H441-luc. Unlike the parental cell lines, these metastatic cells readily migrate to distant sites of the test animal and form metastases upon subcutaneous, orthotopic, or intravenous injection. Synthetic hsa-miR-147 or negative control miRNA was delivered via lipid-based transfection into A549, H1299, H522, H838, Calu-3, HCC827, HCC2935, H520, H596, H1650, H460, A549-luc, H460-luc, HCC827-luc, H1650-luc, H441-luc cells and via electroporation into H226 cells. […]

Row | Compound | IC50 (SCLC and NSCLC cells) [µM] | % proliferation (Du145 cells) [%] | inhibition of cellular proliferation, on average [1] [%]
1 | COc1cc([C@@H]2c3cc4c(cc3[C@@H](O[C@@H]3O[C@@H]5CO[C@@H](C)O[C@H]5[C@H](O)[C@H]3O)[C@H]3COC(=O)[C@H]23)OCO4)cc(OC)c1O [Etoposide, etoposide] | 1 to 25 |  | 
2 | hsa-miR-147: Synthetic pre-miR-147 (Ambion AM17100; Dharmacon in vivo); mature sequence GUGUGUGGAAAUGCUUCUGC, MIMAT0000251, SEQ ID NO:114 (synthetic pre-miR (Ambion/Dharmacon), chemistry not given here; listed as Homo sapiens) |  | 61.50 | 25
